Results: patent US20160361418A1, “COMPOSITION FOR PREVENTION OR TREATMENT OF TREATMENT-RESISTANT CANCER” (priority 2014, published 2016)
“Also recorded” adds a separate entry of the source.

Columns and labels:
ABCG2 [1] = target: T1, ABCG2 (Homo sapiens, UniProt Q9UNQ0); conditions: from earlier publication (Pharm Res. 26(2), 449-458, 2009); cited from earlier work
T1 sequence (Q9UNQ0 1-655): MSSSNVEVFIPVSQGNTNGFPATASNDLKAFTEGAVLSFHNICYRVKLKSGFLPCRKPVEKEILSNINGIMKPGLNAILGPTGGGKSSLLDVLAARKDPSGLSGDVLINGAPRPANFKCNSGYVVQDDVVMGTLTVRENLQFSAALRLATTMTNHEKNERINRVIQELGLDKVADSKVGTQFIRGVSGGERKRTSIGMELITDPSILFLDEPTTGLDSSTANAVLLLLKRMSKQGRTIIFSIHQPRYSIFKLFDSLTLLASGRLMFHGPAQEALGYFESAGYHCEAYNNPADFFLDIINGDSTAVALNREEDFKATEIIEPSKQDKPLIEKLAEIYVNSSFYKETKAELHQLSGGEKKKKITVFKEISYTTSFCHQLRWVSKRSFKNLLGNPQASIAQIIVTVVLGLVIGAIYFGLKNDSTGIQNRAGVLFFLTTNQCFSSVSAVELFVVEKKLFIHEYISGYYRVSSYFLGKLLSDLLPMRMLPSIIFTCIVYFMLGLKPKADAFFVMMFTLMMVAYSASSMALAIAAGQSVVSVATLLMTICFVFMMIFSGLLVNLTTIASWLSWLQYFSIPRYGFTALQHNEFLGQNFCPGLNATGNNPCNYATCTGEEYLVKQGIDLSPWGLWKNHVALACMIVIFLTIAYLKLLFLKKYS

ABCG2 [2] = target: T1, ABCG2; assay: Inhibition of transport function of ABCG2 (Hoechst 33342 excretion, Flp-In-293/ABCG2 cells, FACS); type: cell-based; set-up: expressed in transfected cells; host or cells: Flp-In-293 cells (Flp-In-293/ABCG2), with Flp-In-293/Mock as control; conditions: inhibitor 1 nM to 100 μM, 5 μg/mL Hoechst 33342, 90 minutes
Protocol: In the present experiment, using Hoechst 33342 and a plurality of tyrosine kinase inhibitors, an experiment was carried out to screen for an inhibitor of ABCG2.
Specifically, using Erlotinib, Gefitinib, Lapatinib, Imatinib, Nilotinib and Dasatinib as tyrosine kinase inhibitors, and also using an L-type calcium channel inhibitor, Verapamil, as a control, screening was carried out for inhibition of the transport function of ABCG2.
Flp-In-293 cells (Flp-In-293/ABCG2 cells), which express human ABCG2, were cultured together with Hoechst 33342 as a substrate of ABCG2 and the aforementioned tyrosine kinase inhibitors for a certain period of time. Thereafter, the level of Hoechst 33342 accumulated in individual cells was measured using FACS (Beckman Coulter). […] Specific experimental procedures are as follows.
Flp-In-293/Mock and Flp-In-293/ABCG2 were each washed with PBS (phosphate buffered saline) twice, and were then peeled using Trypsin-EDTA. 10^6 cells were suspended in a DMEM medium (2% FBS). Subsequently, 5 μg/mL Hoechst 33342 (Invitrogen) alone was added to the suspension, or 5 μg/mL Hoechst 33342 was combined with various types of inhibitors in concentrations of 1 nM to 100 μM, and the combination was then added to the suspension. The obtained mixture was cultured at 37° C. for 90 minutes. After completion of the culture, the cultured cells were washed with cold PBS (2% FBS), and were then suspended again in cold PBS (2% FBS). Thereafter, intracellular fluorescence intensity was measured using FACS (Beckman Coulter). 50,000 cells were measured for a single measurement. Hoechst 33342 accumulated in the cells was excited with UV laser, the fluorescence at […] was then detected, and the mean fluorescence intensity (MFI) of the fluorescence of the measured cells was then calculated. Based on the obtained results, the inhibitory percentage against ABCG2 was calculated.
The MFI values of Flp-In-293/Mock cells and Flp-In-293/ABCG2 cells upon addition of Hoechst 33342 alone were set at 100% and 0%, respectively. […]

[3] = system: Human glioblastoma astrocytoma U87MG cells; assay: Intracellular accumulation of PpIX biosynthesized from ALA (FACS fluorescence); type: cell-based; conditions: 4 hours; for fluorescence intensity / intracellular accumulation of PpIX: 2 mM ALA with inhibitor 1 nM to 100 μM
Protocol: Human glioblastoma astrocytoma U87MG cells were cultured together with 2 mM ALA and Lapatinib in various concentrations for 4 hours, and thereafter, the fluorescence intensity (MFI value) of PpIX, which was biosynthesized from ALA and was accumulated in the cells during the culture, was measured using FACS (Beckman Coulter). Specific experimental procedures are as follows.
U87MG cells were washed with PBS twice, and were then peeled using Trypsin-EDTA. 10^6 cells were suspended in a low-serum DMEM medium (2% FBS). Subsequently, 2 mM ALA alone was added to the suspension, or 2 mM ALA was combined with Lapatinib or Gefitinib in a concentration from 1 nM to 100 μM, and the combination was then added to the suspension. Thereafter, the obtained mixture was cultured at 37° C. for 4 hours. After completion of the culture, the cultured cells were washed with cold PBS (2% FBS), and were then suspended again in cold PBS (2% FBS). Thereafter, intracellular fluorescence intensity was measured using FACS (Beckman Coulter). 50,000 cells were measured for a single measurement. PpIX accumulated in the cells was excited with UV laser (325 nm), the fluorescence at 575 nm was then detected, and the mean fluorescence intensity (MFI) of the fluorescence of the measured cells was then calculated. Based on the obtained results, intracellular accumulation of PpIX was relatively calculated, and inhibition of the PpIX transport of ABCG2 by Lapatinib or Gefitinib was estimated.

[4] = system: Human glioblastoma astrocytoma U87MG cells; assay: ALA-PDT with Lapatinib, cell viability by MTT method; type: cell-based; conditions: LED 635 nm 12 J/cm^2
Protocol: Human glioblastoma astrocytoma U87MG cells (10^6 cells) were suspended in DMEM (2% FBS), and thereafter, 10 mM ALA alone was added to the suspension, or 10 mM ALA was combined with Lapatinib in a concentration from 1 nM to 300 μM, and the combination was then added to the suspension. The obtained mixture was cultured at 37° C. for 4 hours. Thereafter, the cells were irradiated with LED having a peak at 635 nm (12 J/cm^2), and the cell viability was then measured by an MTT method. It is to be noted that the MTT method has the same measurement principle as that of the WST-8 assay, and that this is a colorimetric determination method for measuring an enzymatic activity of reducing MTT to a formazan pigment (violet).

MD30 cells = assay: Photosensitivity of cancer stem cells to ALA-PDT (WST-8 cell viability); type: cell-based, human; conditions: sphere type relative to non-sphere type
Protocol: (§1) Specifically, three types of brain tumor glioma stem cell lines (MD13, MD30, and 157NS cells), which had been isolated and established from brain tumor patients, were used, and an experiment was carried out to verify the photosensitivity of these cells to ALA-PDT. In preparation for the experiment, these cells were first cultured in a D-MEM/F12 culture solution containing 10% fetal calf serum (FCS) and in a D-MEM/F12 culture solution containing no FCS (containing L-glutamine, heparin, B27, EGF, and bFGF), and the shapes of the cells were then examined.
(§2) Brain tumor stem cells (MD13, MD30, and 157NS cells), which had grown to a sphere type and a non-sphere type, were treated with trypsin, and thereafter, the resulting cells were each incubated at a density of 1.0×10^6 cells/ml, together with 0.3 mM ALA, for 4 hours. Thereafter, a 405-nm laser light was applied to the cells. After the cells had been cultured for 7 days, the cell viability was measured according to a viable cell count measurement method (WST-8 assay) using water soluble tetrazolium salts as a coloring reagent.
(§3) The sphere type cells (FIG. 2B) cultured in the D-MEM/F12 culture solution containing no FCS (containing L-glutamine, heparin, B27, EGF, and bFGF) had higher sensitivity to ALA-PDT, than the non-sphere type cells (FIG. 2A) cultured in the D-MEM/F12 culture solution containing 10% FCS.

MD13 cells = assay: as above; type: cell-based, human; conditions: sphere type relative to non-sphere type
Protocol: as §1, §2, §3

157NS cells = assay: as above; type: cell-based, human; conditions: sphere type relative to non-sphere type
Protocol: as §1, §2, §3

[5] = metabolized in a living body; cited from earlier work
HeLa cells = assay: Multiple-dose ALA-PDT on HeLa cells and therapy-resistant HeLa cells (WST8 cell viability); type: cell-based, human
Protocol: HeLa cells (human-derived uterine cervix cancer cell line; 1×10^5 cells) were seeded on a 60-mm dish, and then cultured for 24 hours. Thereafter, an anticancer agent was administered to the culture solution. […] The surviving cells (5×10^3 cells) were seeded on a 96-well plate. In the present example, these cells surviving 72 hours after administration of the anticancer agent were used as therapy-resistant cancer.
Twenty-four hours after the seeding of the surviving cells on the 96-well plate, 5-aminolevulinic acid hydrochloride (ALA) was administered to the cells, and the resulting cells were then cultured for 4 hours. Thereafter, 631-nm LED light was applied to the cells to a total dose of 60 J/cm^2, one to three times. In the case of multiple-dose light irradiation, the interval between light irradiations was set at 2 hours. Twenty-four hours after the light irradiation, the resulting cells were washed with PBS twice, and the cell viability was then measured by the WST8 assay.
The longitudinal axis in each figure indicates the percentage of cell viability in the experiment groups, while the cell viability is set at 100% when the experiment was carried out under the same conditions as those described above with the exception that ALA was not administered.

[6] = system: brain tumor cell line A172; assay: Photosensitivity of brain tumor cells to ALA-PDT (WST-8 cell viability); type: cell-based; conditions: 0.3 mM ALA 4 hours, 405-nm laser light, WST-8 after 7 days
Protocol: (§4) The brain tumor cell line A172 (purchased from American Type Culture Collection) was cultured in a D-MEM/F12 culture solution containing no FCS (containing L-glutamine, heparin, B27, EGF, and bFGF). As a result, the cells formed a sphere similar to stem cells. […] The cells, which had grown to a sphere type and a non-sphere type, were treated with trypsin. Subsequently, the cells were each incubated at a density of 1.0×10^6 cells/ml, together with 0.3 mM ALA, for 4 hours, and thereafter, a 405-nm laser light was applied to the cells. After the cells had been further cultured for 7 days, the cell viability was measured by a WST-8 assay in the same manner as that of Example 2.

[7] = system: Brain tumor stem cells (MD13, MD30, and 157NS cells); assay: Photosensitivity of cancer stem cells to ALA-PDT, summary over the three lines; type: cell-based, human; conditions: 0.3 mM ALA 4 hours; 405-nm laser light
Protocol: as §1, §2, §3

[8] = system: brain tumor cell line A172; assay: Photosensitivity of brain tumor cells to ALA-PDT (colony formation assay); type: cell-based; conditions: 0.3 mM ALA 4 hours, 405-nm laser light, colonies after 14 days
Protocol: as §4
Moreover, 500 cells were collected from A172 cells, on which ALA-PDT had been performed, and the cells were then seeded on a D-MEM agar medium containing 10% FCS and an antibiotic, followed by performing a culture for 14 days. Thereafter, the cultured cells were treated with Trypan blue containing 10% formalin, so that the cell colonies were immobilized and stained. The number of colonies each consisting of 50 or more cells was counted using a stereoscopic microscope.
In the aforementioned WST-8 assay, the cell viability can be measured based on a reduction reaction using mitochondrial NAD(P)H. On the other hand, in the colony formation assay, the proliferation ability of cells can be measured. […]

For `COc1cc2ncnc(Nc3ccc(F)c(Cl)c3)c2cc1OCCCN1CCOCC1` [Gefitinib, N-(3-chloro-4-fluoro-phenyl)-7-methoxy-6-(3-morpholin-4-ylpropoxy)quinazolin-4-amine], the “inhibition of ABCG2” value (ABCG2 [1]) is given as “effectively inhibits ABCG2”, the “inhibition of ABCG2 (inhibition of the excretion of Hoechst 33342), comparison among inhibitors” value (“inhibition … comparison among inhibitors” for short) (ABCG2 [2]) is given as “ABCG2-inhibitory ability almost equivalent to each other; also recorded: weaker than that of Lapatinib” and the “fluorescence intensity / intracellular accumulation of PpIX” value [3] is given as “intracellular accumulation of PpIX was observed, but the amount of PpIX accumulated was not as large as that in the case of inhibition by Lapatinib”.
In the case of `C#Cc1cccc(Nc2ncnc3cc(OCCOC)c(OCCOC)cc23)c1` [Erlotinib, N-(3-ethynylphenyl)-6,7-bis(2-methoxyethoxy)-4-quinazolinamine], the “inhibition … comparison among inhibitors” value (ABCG2 [2]) is reported as “ABCG2-inhibitory ability almost equivalent to each other”.
In the case of `CS(=O)(=O)CCNCc1ccc(-c2ccc3ncnc(Nc4ccc(OCc5cccc(F)c5)c(Cl)c4)c3c2)o1` [Lapatinib, n-[3-chloro-4-[(3-fluorophenyl)methoxy]phenyl]-6-[5-[(2-methylsulfonylethylamino)methyl]-2-furyl]quinazolin-4-amine], the “inhibition … comparison among inhibitors” value (ABCG2 [2]) is reported as “inhibits ABCG2 most strongly”, the “sensitivity of the cells to LED irradiation” value ([4]; 10 mM ALA with Lapatinib 1 nM to 300 μM) is reported as “increased in a concentration-dependent manner” and the “fluorescence intensity / intracellular accumulation of PpIX” value [3] is reported as “increased”. The “concentration region in which ABCG2 was significantly inhibited” value ([3]; 2 mM ALA) was at least 10 nM.
For `NCC(=O)CCC(=O)O` [ALA, 5-aminolevulinic acid], the ALA-PDT sensitivity (MD30 cells) was 1.9, the ALA-PDT sensitivity (MD13 cells) was 2.4 and the ALA-PDT sensitivity (157NS cells) was 1.8. The “time until ALA is excreted from the body” value [5] was at most 48 h, the “cell viability in relation to the number of light irradiations” value (HeLa cells; 125 to 250 μM ALA, 631-nm LED total 60 J/cm^2 in one to three irradiations) was “decreased depending on the number of light irradiations” and the “ALA concentration at which the cell viability was decreased” value (HeLa cells; HeLa with no anticancer agent or surviving Adriamycin, Cisplatin, Etoposide or 5-Fluorouracil, 631-nm LED total 60 J/cm^2, 24 hours after) was at least 125 µM. The “photosensitivity to ALA-PDT of sphere type versus non-sphere type cells (cell viability)” value [6] was “higher photosensitivity than the non-sphere type cells”, the cells died ([4]; 10 mM ALA alone 4 hours) was “approximately 50%” and the “sensitivity to ALA-PDT of sphere type cells relative to non-sphere type cells” value [7] was 2 times. For the same compound, the “photosensitivity to ALA-PDT of sphere type versus non-sphere type cells (colony-forming ability)” value [8] was “significantly higher photosensitivity than the non-sphere type cells”.
